The subject of test [1] is C3H10T1/2 cells. Nature of the test: C3H assay: differentiation of C3H10T1/2 cells by mSHH, measurement of alkaline phosphatase. It is filed as cell-based, mouse. Conditions: Mus musculus, C3H 10T1/2.
Test [2] has as its target T1, SMO (Homo sapiens, UniProt Q99835).
T1 construct: expressed in transfected cells; host or cells: HEK293
Description: Smoothened (SMO) binding fluorescence polarisation assay (BODIPY-cyclopamine competition). Conditions: SMO binding FP assay versus C3H10T1/2 cellular assay. As for the experimental part: Standard Protocol for Smoothened (SMO) Binding Fluorescence Polarisation Assay.
The assay measures the ability of the test compounds to compete with a fluorescently-labelled version of the known ligand, cyclopamine, for binding to SMO. The fluorescent tag used is BODIPY (boron dipyrromethene).
An aliquot of a membrane preparation from a SMO-over-expressing HEK293 cell line is diluted to protein concentration of 0.117 mg/ml in assay buffer (25 mM HEPES, 2 mM EDTA, 0.05% γ-globulin, 0.01% pluronic acid pH7.4, plus protease Inhibitor cocktail). 8.5 μl of the membrane suspension is added to each well of a black, low volume 384 well microtitre plate.
Test compounds are added in a seven point dilution range to the wells containing the membrane preparation. The final DMSO solvent concentration in the wells is maintained at 0.3%. 6.5 μl of a 6.9 nM BODIPY-cyclopamine solution is added to each of the wells (final assay concentration 3 nM).
The plate is sealed and stored in the dark at room temperature for 24 hours prior to measurement of the fluorescence polarisation signal on a Perkin Elmer Envision multi-label reader.
Table 4 below details the ratio of SMO binding compared to the potency in the C3H10T1/2 cellular assay. The small ratio between SMO binding and potency for vismodegib is considered to be reflective of the fact vismodegib acts mainly through inhibition of the SMO protein. The larger ratios for the compound of the invention are considered to be reflective of alternate actions outside of direct SMO inhibition.
(Fluorescence polarisation rises when a labelled molecule tumbles more slowly, as on binding a larger partner.)

The mark [3] stands for this setting: C3H10T1/2 cells stimulated with mSHH for 72 hours, alkaline phosphatase activity, read-out: IC50 Ranges.

Consider 28 molecules from patent publication US10961238B2, “Modulators of hedgehog (Hh) signaling pathway” (E-THERAPEUTICS PLC, priority 2016, dated 2021).

Molecules are shown by their SMILES. Where two headings read alike, the source gives them in different places.

T1 sequence (Q99835 28-787): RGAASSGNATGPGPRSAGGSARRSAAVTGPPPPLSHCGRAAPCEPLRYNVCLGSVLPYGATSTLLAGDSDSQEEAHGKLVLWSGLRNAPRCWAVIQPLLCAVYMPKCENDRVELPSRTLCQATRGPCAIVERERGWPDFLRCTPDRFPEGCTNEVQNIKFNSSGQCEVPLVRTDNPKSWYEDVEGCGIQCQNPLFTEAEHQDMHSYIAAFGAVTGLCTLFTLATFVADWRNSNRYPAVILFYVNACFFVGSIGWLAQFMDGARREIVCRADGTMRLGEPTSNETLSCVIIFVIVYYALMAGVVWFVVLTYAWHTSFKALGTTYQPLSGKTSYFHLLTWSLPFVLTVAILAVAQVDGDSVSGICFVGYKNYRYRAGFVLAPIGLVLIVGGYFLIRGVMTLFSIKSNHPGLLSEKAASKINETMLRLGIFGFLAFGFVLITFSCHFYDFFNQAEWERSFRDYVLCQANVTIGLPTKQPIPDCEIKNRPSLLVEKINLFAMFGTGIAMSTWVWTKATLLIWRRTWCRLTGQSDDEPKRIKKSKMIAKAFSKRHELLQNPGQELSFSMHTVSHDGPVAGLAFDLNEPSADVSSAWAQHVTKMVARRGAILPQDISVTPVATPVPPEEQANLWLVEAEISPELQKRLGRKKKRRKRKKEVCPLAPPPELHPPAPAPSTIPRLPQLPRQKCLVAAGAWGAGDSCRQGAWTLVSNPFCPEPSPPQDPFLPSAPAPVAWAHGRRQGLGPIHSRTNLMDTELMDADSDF

In general, IC50 refers to the concentration at which inhibition is half-maximal. As to `COC(=O)c1cnc2[nH]cc(C3CCN(S(=O)(=O)C4CCN(C(=O)OC(C)(C)C)CC4)CC3)c2c1` [Compound 16, methyl 3-[1-[1-[(2-methylpropan-2-yl)oxycarbonyl]piperidin-4-yl]sulfonylpiper-idin-4-yl]-1H-pyrrolo[2,3-b]pyridine-5-carboxylate], in test [1] (setting [3]), the IC50 was 100 to 1000 nM. Further, the “Ratio of potency in SMO binding assay to potency in C3H10T1/2 cellular assay” value (“Ratio of potency in SMO binding assay” for short) in test [2] is more than 78.
The matching figures for `CC1(C)COCC(C)(C)N1C(=O)N1CC(S(=O)(=O)N2CCC(c3cnc4occc4c3)CC2)C1` [Compound 34, [3-(4-furo[2,3-b]pyridin-5-ylpiperidin-1-yl)sulfonylaze-tidin-1-yl]-(3,3,5,5-tetramethylmor-pholin-4-yl)methanone]: 10 to 100 nM and 21.
Consider `O=C(OCC1CCCO1)N1CC(S(=O)(=O)N2CCC(c3c[nH]c4ncccc34)CC2)C1` (stereo not drawn) [Compound 67, (oxolan-2-yl)methyl 3-[4-(1H-pyrrolo [2,3-b]pyridin-3-yl)piperidin-1-yl]sulfonylaze-tidine-1-carboxylate], for which the IC50 in test [1] (setting [3]) was in the range of 10 to 100 nM. Moreover, the “Ratio of potency in SMO binding assay” value in test [2] is recorded as 45.
In the case of `CC(C)OC(=O)N1CC(S(=O)(=O)N2CCC(c3c[nH]c4ncccc34)CC2)C1` [Compound 97, propan-2-yl 3-[4-(1H-pyrrolo[2,3-b]pyridin-3-yl)piperidin-1-yl]sulfonylaze-tidine-1-carboxylate], in test [1] (setting [3]), the IC50 lay within 100 to 1000 nM. The “Ratio of potency in SMO binding assay” value in test [2] stood at 22.
In the same order, the values of `CN(C)c1ccc(C2CCN(S(=O)(=O)C3CCN(C(=O)OC(C)(C)C)CC3)CC2)cc1` [Compound 112] are 100 to 1000 nM and 42.
`O=C(Nc1cc(F)ccc1Cl)N1CC(S(=O)(=O)N2CCC(c3coc4cccnc34)CC2)C1` [Compound 384, N-(2-chloro-5-fluorophenyl)-3-(4-furo[3,2-b]pyridin-3-ylpiperidin-1-yl)sulfonylaze-tidine-1-carboxamide]: the IC50 in test [1] (setting [3]) was 10 to 100 nM.
Consider `O=C(Nc1cc(F)ccc1Cl)N1CC(S(=O)(=O)N2CCC(c3c[nH]c4ncccc34)CC2)C1` [Compound 385, N-(2-chloro-5-fluorophenyl)-3-[4-(1H-pyrrolo[2,3-b]pyridin-3-yl)piperidin-1-yl]sulfonylaze-tidine-1-carboxamide], for which the IC50 in test [1] (setting [3]) was in the range of 10 to 100 nM.
As for `Cc1noc(C)c1CC(=O)N1CC(S(=O)(=O)N2CCC(c3ccc(Cl)cc3)CC2)C1` [Compound 386, 1-[3-[4-(4-chlorophenyl)piperidin-1-yl]sulfonylaze-tidin-1-yl]-2-(3,5-dimethyl-1,2-oxazol-4-yl)ethanone], the IC50 in test [1] (setting [3]) was in the range of 10 to 100 nM.
Consider `Cc1cccc(F)c1NC(=O)N1CC(S(=O)(=O)N2CCC(c3c[nH]c4ncccc34)CC2)C1` [Compound 387, N-(2-fluoro-6-methylphenyl)-3-[4-(1H-pyrrolo[2,3-b]pyridin-3-yl)piperidin-1-yl]sulfonylaze-tidine-1-carboxamide], for which the IC50 in test [1] (setting [3]) lay in the range of 10 to 100 nM.
Consider `O=C(Nc1cccc(F)c1)N1CC(S(=O)(=O)N2CCC(c3c[nH]c4ncccc34)CC2)C1` [Compound 389, N-(3-fluorophenyl)-3-[4-(1H-pyrrolo[2,3-b]pyridin-3-yl)piperidin-1-yl]sulfonylaze-tidine-1-carboxamide], for which, in test [1] (setting [3]), the IC50 fell in the range of 10 to 100 nM.
With `O=C(Nc1c(F)cccc1F)N1CC(S(=O)(=O)N2CCC(c3c[nH]c4ncccc34)CC2)C1` [Compound 390, N-(2,6-difluorophenyl)-3-[4-(1H-pyrrolo[2,3-b]pyridin-3-yl)piperidin-1-yl]sulfonylaze-tidine-1-carboxamide], in test [1] (setting [3]), the IC50 was in the range of 10 to 100 nM.
The same measure, in the same setting: the figure for `Cc1cccc(C)c1NC(=O)N1CC(S(=O)(=O)N2CCC(c3c[nH]c4ncccc34)CC2)C1` [Compound 391, N-(2,6-dimethylphenyl)-3-[4-(1H-pyrrolo[2,3-b]pyridin-3-yl)piperidin-1-yl]sulfonylaze-tidine-1-carboxamide] is 10 to 100 nM; for `Cc1cc(F)ccc1NC(=O)N1CC(S(=O)(=O)N2CCC(c3coc4cccnc34)CC2)C1` [Compound 392, N-(4-fluoro-2-methylphenyl)-3-(4-furo[3,2-b]pyridin-3-ylpiperidin-1-yl)sulfonylaze-tidine-1-carboxamide] it is 10 to 100 nM.
The same measure, in the same setting: to `C[C@@H]1CN(C(=O)N2CC(S(=O)(=O)N3CCC(c4ccc(Cl)cc4)CC3)C2)C[C@H](C)O1` [Compound 393, [3-[4-(4-chlorophenyl)piperidin-1-yl]sulfonylaze-tidin-1-yl]-[(2R,6S)-2,6-dimethylmorpholin-4-yl]methanone] belongs 10 to 100 nM; to `Cc1cc(F)ccc1NC(=O)N1CC(S(=O)(=O)N2CCC(c3c[nH]c4ncccc34)CC2)C1` [Compound 394, N-(4-fluoro-2-methylphenyl)-3-[4-(1H-pyrrolo[2,3-b]pyridin-3-yl)piperidin-1-yl]sulfonylazet idine-1-carboxamide], 10 to 100 nM.
As to `CC(C)(O)CC(=O)N1CC(S(=O)(=O)N2CCC(c3coc4cccnc34)CC2)C1` [Compound 398, 1-[3-(4-furo[3,2-b]pyridin-3-ylpiperidin-1-yl)sulfonylaze-tidin-1-yl]-3-hydroxy-3-methylbutan-1-one], in test [1] (setting [3]), the IC50 lay in the range of 100 to 1000 nM.
For the molecule `Cc1cc(F)ccc1N(C)C(=O)N1CC(S(=O)(=O)N2CCC(c3coc4cccnc34)CC2)C1` [Compound 399, N-(4-fluoro-2-methyl-phenyl)-3-[(4-furo[3,2-b]pyridin-3-yl-1-piperidyl)sulfonyl]-N-methyl-azetidine-1-carboxamide], the IC50 in test [1] (setting [3]) is 100 to 1000 nM.
As for `Cc1ccc(F)cc1NC(=O)N1CC(S(=O)(=O)N2CCC(c3ccc(Cl)cc3)CC2)C1` [Compound 400, 3-[4-(4-chlorophenyl)piperidin-1-yl]sulfonyl-N-(5-fluoro-2-methylphenyl) azetidine-1-carboxamide], the IC50 in test [1] (setting [3]) was in the range of 100 to 1000 nM.
On to `O=C(N1CCOCC1)N1CC(S(=O)(=O)N2CCC(c3ccc(Cl)cc3)CC2)C1` [Compound 402, [3-[4-(4-chlorophenyl)piperidin-1-yl]sulfonylaze-tidin-1-yl]-morpholin-4-ylmethanone], for which, in test [1] (setting [3]), the IC50 lay in the range of 100 to 1000 nM.
In the case of `O=C(Nc1c(F)cccc1F)N1CC(S(=O)(=O)N2CCC(c3coc4cccnc34)CC2)C1` [Compound 403, N-(2,6-difluorophenyl)-3-(4-furo[3,2-b]pyridin-3-ylpiperidin-1-yl)sulfonylaze-tidine-1-carboxamide], the IC50 in test [1] (setting [3]) is 10 to 100 nM.
On the same count and under the same terms, the figure for `CC(C)(C(=O)N1CC(S(=O)(=O)N2CCC(c3coc4cccnc34)CC2)C1)C(F)(F)F` [Compound 404, 3,3,3-trifluoro-1-[3-(4-furo[3,2-b]pyridin-3-ylpiperidin-1-yl)sulfonylaze-tidin-1-yl]-2,2-dimethylpropan-1-one] is 10 to 100 nM; for `C[C@](O)(CC(=O)N1CC(S(=O)(=O)N2CCC(c3c[nH]c4ncccc34)CC2)C1)C(F)(F)F` [Compound 405, 4,4,4-trifluoro-3-hydroxy-3-methyl-1-[3-[4-(1H-pyrrolo[2,3-b]pyridin-3-yl)piperidin-1-yl]sulfonylaze-tidin-1-yl]butan-1-one] it is 10 to 100 nM; for `C[C@](O)(CC(=O)N1CC(S(=O)(=O)N2CCC(c3coc4cccnc34)CC2)C1)C(F)(F)F` [Compound 406, 4,4,4-trifluoro-1-[3-(4-furo[3,2-b]pyridin-3-ylpiperidin-1-yl)sulfonylaze-tidin-1-yl]-3-hydroxy-3-methylbutan-1-one] it is 10 to 100 nM.
Consider `CN1CCC[C@H]1C(=O)N1CC(S(=O)(=O)N2CCC(c3coc4cccnc34)CC2)C1` [Compound 407, [3-(4-furo[3,2-b]pyridin-3-ylpiperidin-1-yl)sulfonylazetidin-1-yl]-[(2S)-methylpyrroli-din-2-yl]methanone], for which, in test [1] (setting [3]), the concentration for half-maximal inhibition (IC50) was 100 to 1000 nM.
On to `CC(C)CC(=O)N1CC(S(=O)(=O)N2CCC(c3coc4cccnc34)CC2)C1` [Compound 408, 1-[3-(4-furo[3,2-b]pyridin-3-ylpiperidin-1-yl)sulfonylazetidin-1-yl]-3-methylbutan-1-one], for which, in test [1] (setting [3]), the IC50 fell in the range of 100 to 1000 nM.
For the molecule `Cc1ccccc1C1CCN(S(=O)(=O)C2CN(C(=O)OC(C)(C)C)C2)CC1` [Compound 409, tert-butyl 3-[4-(2-methylphenyl)piperidin-1-yl]sulfonylaze-tidine-1-carboxylate], the IC50 in test [1] (setting [3]) lay in the range of 1000 to 10000 nM.
The same measure, in the same setting: the figure for `CC1(C)COCN1C(=O)N1CC(S(=O)(=O)N2CCC(c3ccc(Cl)cc3)CC2)C1` [Compound 411, [3-[4-(4-chlorophenyl)piperidin-1-yl]-sulfonylaze-tidin-1-yl]-(4,4-dimethyl-1,3-oxazolidin-3-yl)-methanone] is 10 to 100 nM.
`Cc1c(C(=O)Nc2ccc(N3C[C@@H](C)O[C@@H](C)C3)nc2)cccc1-c1ccc(OC(F)(F)F)cc1` [Sonidegib, reference compound]: the IC50 in test [1] (reference compounds run in the C3H assay, read-out: mean IC50) is 11 nM.
